From patent EP4603105A1, “PHARMACEUTICAL COMPOSITION CONTAINING CYCLIC COMPOUND HAVING SELECTIVE KRAS INHIBITORY EFFECT AGAINST HRAS AND NRAS” (CHUGAI SEIYAKU KABUSHIKI KAISHA, priority 2022, dated 2024)
Where a SMILES comes first, the peptide text is derived from it. Bridges are numbered along the chain shown (N, C = ends). [ ]: non-standard residue; d: D form. The star is where a group is joined. hPhe(3,5-F2-4-CF3) = N[C@@H](CCc1cc(F)c(C(F)(F)F)c(F)c1)C(=O)O; hPhe(3-Cl-4-CF3) = N[C@@H](CCc1ccc(C(F)(F)F)c(Cl)c1)C(=O)O; NPrPhe(4-CF3) = CCCN[C@@H](Cc1ccc(C(F)(F)F)cc1)C(=O)O; NMeGly(cPent) = CN[C@H](C(=O)O)C1CCCC1; NMeD = CN[C@@H](CC(=O)O)C(=O)O; Ac4c(3-oxa) = NC1(C(=O)O)COC1; NMeL = CN[C@@H](CC(C)C)C(=O)O; Pip = O=C(O)[C@@H]1CCCCN1; Morpholide = C1CN(*)CCO1; Ac5c = NC1(C(=O)O)CCCC1; Aze = O=C(O)[C@@H]1CCN1; Sar = CNCC(=O)O

Experiments:
[1] = system: human lung cancer strain NCI-H441; format: cell-based
In short: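 Step one: dispense the test compound in serial DMSO dilutions. Step three: add the reagent and measure […].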

[2] = molecular target: GDP-bound NRAS wild-type protein (Homo sapiens, UniProt P01111); test: Binding to NRAS by surface plasmon resonance (SPR), KD and KD ratio to KRAS
In short: (§1)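 Captured GDP-RAS (~100–300 RU) was exposed to increasing compound concentrations, 75 s per step, in running buffer with 10 µM GDP, 10 mM MgCl2 and 4% DMSO at pH 7.4.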

[3] = molecular target: HRAS wild-type protein (Homo sapiens, UniProt P01112); test: Binding to HRAS by surface plasmon resonance (SPR), KD and KD ratio to KRAS
In short: as §1

[4] = ratio of the KD value with respect to GDP-bound NRAS wild-type protein to the KD value with respect to KRAS
[5] = ratio of the KD value with respect to HRAS wild-type protein to the KD value with respect to KRAS
[6] = ratio of KD for GDP-bound NRAS wild-type protein to KD for KRAS
[7] = ratio of KD for HRAS wild-type protein to KD for KRAS
[8] = ratio of KD value for GDP-bound NRAS wild-type protein to KD value for KRAS (SPR)
[9] = ratio of KD value for HRAS wild-type protein to KD value for KRAS (SPR)

Chain of HRAS wild-type protein (P01112 whole entry): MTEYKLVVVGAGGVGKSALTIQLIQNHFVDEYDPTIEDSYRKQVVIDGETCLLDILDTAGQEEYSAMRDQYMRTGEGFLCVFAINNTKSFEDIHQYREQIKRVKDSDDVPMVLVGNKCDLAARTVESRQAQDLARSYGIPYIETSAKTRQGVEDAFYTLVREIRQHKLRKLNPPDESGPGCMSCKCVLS
Chain of GDP-bound NRAS wild-type protein (P01111 whole entry): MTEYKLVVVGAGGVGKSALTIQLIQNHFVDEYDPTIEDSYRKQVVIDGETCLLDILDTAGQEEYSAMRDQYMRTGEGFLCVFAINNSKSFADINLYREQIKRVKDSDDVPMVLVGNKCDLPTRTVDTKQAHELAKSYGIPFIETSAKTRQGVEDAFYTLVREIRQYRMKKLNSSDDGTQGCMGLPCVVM

SMILES | IC50 [1] | NRAS /KRAS [2, 4] | HRAS /KRAS [3, 5] | NRAS /KRAS [2, 6] | HRAS /KRAS [3, 7] | NRAS /KRAS [2, 8] | HRAS /KRAS [3, 9]
CC[C@H](C)[C@@H]1NC(=O)[C@H](CC(C)C)N(C)C(=O)C[C@@H](C(=O)N2CCOCC2)N(C)C(=O)[C@H](C2CCCC2)N(C)C(=O)C2(CCCC2)NC(=O)[C@@H]2CCCN2C(=O)[C@H](CCc2ccc(C(F)(F)F)c(Cl)c2)NC(=O)CN(C)C(=O)[C@H](Cc2ccc(C)cc2)N2CC/C=C\C[C@@H](C2=O)N(C)C(=O)CN(C)C1=O [PP0461] | 23.2 nM | A (a compound having 10 or more and less than 20 is denoted as A) | A (a compound having 10 or more and less than 20 is denoted as A) |  |  |  | 
CCCN1C(=O)[C@@H]2CCN2C(=O)CN(C)C(=O)[C@H]([C@@H](C)CC)NC(=O)[C@H](CC(C)C)N(C)C(=O)C[C@@H](C(=O)N2CCOCC2)N(C)C(=O)[C@H](C2CCCC2)N(C)C(=O)C2(COC2)NC(=O)[C@@H]2CCCN2C(=O)[C@H](CCc2cc(F)c(C(F)(F)F)c(F)c2)NC(=O)CN(C)C(=O)[C@@H]1Cc1ccc(C(F)(F)F)cc1 [PP0801] ([NMeL]I[Sar][Aze][NPrPhe(4-CF3)][Sar][hPhe(3,5-F2-4-CF3)]P[Ac4c(3-oxa)][NMeGly(cPent)][NMeD]-Morpholide; lactam N-11) | 28.7 nM |  |  | C (A compound having a KD ratio of 0.1 or more and less than 3 is denoted as C) | B (a compound having 3 or more and less than 10 is denoted as B) |  | 
CC[C@H](C)[C@@H]1NC(=O)[C@H](CC(C)C)N(C)C(=O)C[C@@H](C(=O)N2CCOCC2)N(C)C(=O)[C@H](C2CCCC2)N(C)C(=O)C2(CCC2)NC(=O)[C@@H]2C[C@@H](C(F)(F)F)CN2C(=O)[C@H](CCc2cc(F)c(C(F)(F)F)c(F)c2)NC(=O)CN(C)C(=O)[C@H](Cc2ccc(C(F)(F)F)cc2)N2CCCC[C@@H](C2=O)N(C)C(=O)CN(C)C1=O [PP0809] | 8.4 nM |  |  | B (a compound having 3 or more and less than 10 is denoted as B) | B (a compound having 3 or more and less than 10 is denoted as B) |  | 
CCCN1C(=O)CN(C)C(=O)CN(C)C(=O)[C@H]([C@@H](C)CC)NC(=O)[C@H](CC(C)C)N(C)C(=O)C[C@@H](C(=O)N2CCOCC2)N(C)C(=O)[C@H](C2CCCC2)N(C)C(=O)C2(CCCC2)NC(=O)[C@@H]2CCCCN2C(=O)[C@H](CCc2ccc(C(F)(F)F)c(Cl)c2)NC(=O)CN(C)C(=O)[C@@H]1Cc1ccc(C(F)(F)F)cc1 [PP0263] ([NMeL]I[Sar][Sar][NPrPhe(4-CF3)][Sar][hPhe(3-Cl-4-CF3)][Pip][Ac5c][NMeGly(cPent)][NMeD]-Morpholide; lactam N-11) | 19.2 nM |  |  | B (a compound having 3 or more and less than 10 is denoted as B) | C (A compound having a KD ratio of 0.1 or more and less than 3 is denoted as C) |  | 
CC[C@H](C)[C@@H]1NC(=O)[C@H](CC(C)C)N(C)C(=O)C[C@@H](C(=O)N2CCOCC2)N(C)C(=O)[C@H](C2CCCC2)N(C)C(=O)C2(CCCC2)NC(=O)[C@@H]2CCCN2C(=O)[C@H](CCc2cc(F)c(C(F)(F)F)c(F)c2)NC(=O)CN(C)C(=O)[C@H](Cc2ccc(C(F)(F)F)cc2)N2CCCC[C@@H](C2=O)N(C)C(=O)CN(CC)C1=O [PP0545] | 14 nM | B (a compound having 3 or more and less than 10 is denoted as B) | B (a compound having 3 or more and less than 10 is denoted as B) |  |  |  | 
CC[C@H](C)[C@@H]1NC(=O)[C@H](CC(F)(F)F)N(C)C(=O)C[C@@H](C(=O)N2CCOCC2)N(C)C(=O)[C@H](C2CCCC2)N(C)C(=O)C2(CCCC2)NC(=O)[C@@H]2CCCN2C(=O)[C@H](CCc2cc(F)c(C(F)(F)F)c(F)c2)NC(=O)CN(C)C(=O)[C@H](Cc2ccc(C(F)(F)F)cc2)N2CCCCC[C@@H](C2=O)N(C)C(=O)CN(C)C1=O [PP0520] | 17.1 nM | B (a compound having 3 or more and less than 10 is denoted as B) | B (a compound having 3 or more and less than 10 is denoted as B) |  |  |  | 
CCO[C@@H]1C[C@H]2C(=O)NC3(CCC3)C(=O)N(C)[C@@H](C3CCCC3)C(=O)N(C)[C@H](C(=O)N(C)C)CC(=O)N(C)[C@@H](CC)C(=O)N[C@@H]([C@@H](C)CC)C(=O)N(C)CC(=O)N(C)[C@H]3CCCCN(C3=O)[C@@H](Cc3ccc(C(F)(F)F)cc3)C(=O)N(C)CC(=O)N[C@@H](CCc3cc(F)c(C(F)(F)F)c(F)c3)C(=O)N2C1 [PP0693] | 3.8 nM | C (A compound having a KD ratio of 0.1 or more and less than 3 is denoted as C) | C (A compound having a KD ratio of 0.1 or more and less than 3 is denoted as C) |  |  |  | 

Continued, in another order:

IC50 [1] | SMILES | NRAS /KRAS [2, 4] | HRAS /KRAS [3, 5] | NRAS /KRAS [2, 6] | HRAS /KRAS [3, 7] | NRAS /KRAS [2, 8] | HRAS /KRAS [3, 9]
275 nM | CCO[C@@H]1C[C@H]2C(=O)NC3(CCC3)C(=O)N(C)[C@@H](C3CCCC3)C(=O)N(C)[C@H](C(=O)N(C)C)CC(=O)N(C)[C@@H](CCC(=O)N(C)C)C(=O)N[C@@H]([C@@H](C)CC)C(=O)N(C)CC(=O)N(C)[C@H]3C/C=C\CCN(C3=O)[C@@H](Cc3ccc(C(F)(F)F)cc3)C(=O)N(C)CC(=O)N[C@@H](CCc3cc(F)c(C(F)(F)F)c(F)c3)C(=O)N2C1 [PP1122] |  |  | A (a compound having 10 or more and less than 20 is denoted as A) | B (a compound having 3 or more and less than 10 is denoted as B) |  | 
150 nM | CCO[C@@H]1C[C@H]2C(=O)NC3(CCCC3)C(=O)N(C)[C@@H](C3CCCC3)C(=O)N(C)[C@H](C(=O)N(C)C)CC(=O)N(C)[C@@H](CC)C(=O)N[C@@H]([C@@H](C)CC)C(=O)N(C)CC(=O)N(C)[C@H]3CC(C)=CCN(C3=O)[C@@H](Cc3ccc(C(F)(F)F)cc3)C(=O)N(C)CC(=O)N[C@@H](CCc3cc(F)c(C(F)(F)F)c(F)c3)C(=O)N2C1 [PP1036] |  |  | C (A compound having a KD ratio of 0.1 or more and less than 3 is denoted as C) | C (A compound having a KD ratio of 0.1 or more and less than 3 is denoted as C) |  | 
10.3 nM | CC[C@H](C)[C@@H]1NC(=O)[C@H](C2CCC2)N(C)C(=O)C[C@@H](C(=O)N(C)C)N(C)C(=O)[C@H](C2CCCC2)N(C)C(=O)C2(CC(C)(C)C2)NC(=O)[C@@H]2C[C@H](C)CN2C(=O)[C@H](CCc2ccc(C(F)(F)F)c(OC)c2)NC(=O)CN(C)C(=O)[C@H](Cc2ccc(C(F)(F)F)cc2)N2CC/C=C\C[C@@H](C2=O)N(C)C(=O)CN(C)C1=O [PP2011] | A (a compound having 10 or more and less than 20 is denoted as A) | A (a compound having 10 or more and less than 20 is denoted as A) |  |  |  | 
29.1 nM | CC[C@H](C)[C@@H]1NC(=O)[C@H](CC(C)C)N(C)C(=O)C[C@@H](C(=O)N2CCOCC2)N(C)C(=O)[C@H](C2CCCC2)N(C)C(=O)C2(CCC2)NC(=O)[C@@H]2C[C@@H](OC)CN2C(=O)[C@H](CCc2cc(F)c(C(F)(F)F)c(F)c2)NC(=O)CN(C)C(=O)[C@H](Cc2ccc(C(F)(F)F)cc2)N2CCCC[C@@H](C2=O)N(C)C(=O)CN(C)C1=O [PP1003] |  |  | C (A compound having a KD ratio of 0.1 or more and less than 3 is denoted as C) | B (a compound having 3 or more and less than 10 is denoted as B) |  | 
27.3 nM | CCCO[C@@H]1C[C@H]2C(=O)NC3(CC(C)(C)C3)C(=O)N(C)[C@@H](C3CCCC3)C(=O)N(C)[C@H](C(=O)N3CCCC3)CC(=O)N(C)[C@H]3CCCc4ccc(cc4)C[C@@H](C(=O)N(C)CC(=O)N[C@@H](CCc4ccc(C(F)(F)F)c(OC)c4)C(=O)N2C1)N1CC/C=C\C[C@@H](C1=O)N(C)C(=O)CN(C)C(=O)[C@H]([C@@H](C)CC)NC3=O [PP3065] |  |  | A (a compound having 10 or more and less than 20 is denoted as A) | B (a compound having 3 or more and less than 10 is denoted as B) |  | 
2.9 nM | CCCN(C)C(=O)[C@@H]1CC(=O)N(C)[C@@H](COC)C(=O)N[C@@H]([C@@H](C)CC)C(=O)N(C)CC(=O)N(C)[C@H]2C/C=C\CCN(C2=O)[C@@H](Cc2ccc(C(F)(F)F)cc2)C(=O)N(C)CC(=O)N[C@@H](CCc2cc(F)c(C(F)(F)F)c(F)c2)C(=O)N2C[C@H](F)C[C@H]2C(=O)NC2(CC(C)(C)C2)C(=O)N(C)[C@@H](C2CCCC2)C(=O)N1C [PP1696] |  |  |  |  | AA (a compound having 20 or more is denoted as AA) | A (a compound having 10 or more and less than 20 is denoted as A)
7 nM | C=CCN1CC(=O)N(C)[C@H]2C/C=C\CCN(C2=O)[C@@H](Cc2ccc(C(F)(F)F)cc2)C(=O)N(C)CC(=O)N[C@@H](CCc2cc(F)c(C(F)(F)F)c(F)c2)C(=O)N2C[C@H](OCC)C[C@H]2C(=O)NC2(CC(C)(C)C2)C(=O)N(C)[C@@H](C2CCCC2)C(=O)N(C)[C@H](C(=O)N(C)C)CC(=O)N(C)[C@@H](CCC)C(=O)N[C@@H]([C@@H](C)CC)C1=O [PP2102] | A (a compound having 10 or more and less than 20 is denoted as A) | A (a compound having 10 or more and less than 20 is denoted as A) |  |  |  | 
18.1 nM | CCO[C@@H]1C[C@H]2C(=O)NC3(CCC3)C(=O)N(C)[C@@H](C3CCCC3)C(=O)N(C)[C@@H](C(C)C)CC(=O)N(C)[C@@H](CC3CC3)C(=O)N[C@@H]([C@@H](C)CC)C(=O)N(C)CC(=O)N(C)[C@H]3C/C=C\CCN(C3=O)[C@@H](Cc3ccc(C(F)(F)F)cc3)C(=O)N(C)CC(=O)N[C@@H](CCc3cc(F)c(C(F)(F)F)c(F)c3)C(=O)N2C1 [PP1596] |  |  |  |  | A (a compound having 10 or more and less than 20 is denoted as A) | B (a compound having 3 or more and less than 10 is denoted as B)
